Format in all cases: in vivo
The test system of test [1] is Amarantus retroflexus (AMARE). The test is described as follows: Biological Example 2 comparative herbicidal data, post-emergence glasshouse screen. The following applies: Amaranthus retroflexus, read-out: Post-emergence herbicidal activities (percentage phytotoxicity) AMARE; for pest or weed control at 8 g/ha: 8 g/ha application rate; for pest or weed control at 30 g/ha: 30 g/ha application rate.

The test system of test [2] is Alopecurus myosuroides (ALOMY). The test is described as above. The following applies: 312 h, read-out: Post-emergence herbicidal activities (percentage phytotoxicity) ALOMY; for pest or weed control at 8 g/ha: 8 g/ha application rate; for pest or weed control at 30 g/ha: 30 g/ha application rate. Here is the method:
(§1) Seeds of a variety of test species were sown in standard soil in pots. After cultivation for one day (pre-emergence) or after 8 days cultivation (post-emergence) under controlled conditions in a glasshouse (at 24/16° C., day/night; 14 hours light; 65% humidity), the plants were sprayed with an aqueous spray solution derived from the formulation of the technical active ingredient in acetone/I water (50:50) solution containing 0.5% Tween 20 (polyoxyethelyene sorbitan monolaurate, CAS RN 9005-64-5). The test plants were then grown in a glasshouse under controlled conditions in a glasshouse (at 24/16° C., day/night; 14 hours light; 65% humidity) and watered twice daily. After 13 days for pre and post-emergence, the test was evaluated visually for percentage phytotoxicity to the plant (where 100=total damage to plant; 0=no damage to plant).
(§2) Comparative herbicidal data is given below for certain exemplified compounds with 4-(prop-1-ynyl)-2,6-dimethylphenyl or 4-(chloroethynyl)-2,6-dimethylphenyl headgroups, compared to the corresponding compounds with either 4-ethynyl-2,6-dimethylphenyl or 2,4,6-trimethylphenyl headgroups, as follows. Comparative herbicidal data is also given below for certain exemplified compounds with 4-(prop-1-ynyl)-2-chloro-6-methoxyphenyl headgroups, compared to the corresponding compounds with 4-ethynyl-2-chloro-6-methoxyphenyl or 4-(but-1-ynyl)-2-chloro-6-methoxyphenyl or 4-methyl-2-chloro-6-methoxyphenyl or 2-chloro-6-methoxyphenyl headgroups, as follows.
(§3) Except where specified otherwise, the glasshouse screen for herbicidal activity is substantially the same as that presented in Biological Example 1A (Test 1A) hereinabove. The weed abbreviations are as defined in Biological Example 1A.

Test [3] deals with Setaria faberi (SETFA). The test is described as above. The following applies: 312 h, read-out: Post-emergence herbicidal activities (percentage phytotoxicity) SETFA; for pest or weed control at 8 g/ha: 8 g/ha application rate; for pest or weed control at 30 g/ha: 30 g/ha application rate. Here is the method: as §1, §2, §3
Test [4] concerns Echinochloa crus-galli (ECHCG). The description is as above. The following applies: 312 h, read-out: Post-emergence herbicidal activities (percentage phytotoxicity) ECHCG; for pest or weed control at 8 g/ha: 8 g/ha application rate; for pest or weed control at 30 g/ha: 30 g/ha application rate. Here is the method:
as §1, §2, §3

Test [5] relates to Alopecurus myosuroides (ALOMY). The test is described as follows: Test 1A glasshouse assay for herbicidal activity, pre-emergence. The following applies: 312 h, 250 g/ha, evaluated after 13 days, read-out: percentage phytotoxicity ALOMY. The procedure:
as §1
(§4) Alopecurus myosuroides (ALOMY), Setaria faberi (SETFA), Echinochloa crus-galli (ECHCG), Solanum nigrum (SOLNI), Amaranthus retroflexus (AMARE), Ipomoea hederacea (IPOHE), and Abutilon theophasti Medik. (ABUTH, common English name “velvetleaf”). Of these, Alopecurus myosuroides (ALOMY), Setaria faberi (SETFA), and Echinochloa crus-galli (ECHCG) are grassy monocotyledonous weeds.

The subject of test [6] is Amaranthus retroflexus (AMARE). Described as above. The following applies: 312 h, 250 g/ha, evaluated after 13 days, read-out: percentage phytotoxicity AMARE. The procedure:
as §1, §4

The subject of test [7] is Setaria faberi (SETFA). Described as above. The following applies: 312 h, 250 g/ha, evaluated after 13 days, read-out: percentage phytotoxicity SETFA. The procedure: as §1, §4
The subject of test [8] is Abutilon theophasti Medik. (ABUTH). The test is described as above. The following applies: 312 h, 250 g/ha, evaluated after 13 days, read-out: percentage phytotoxicity ABUTH. The procedure: as §1, §4
Test [9] concerns Echinochloa crus-galli (ECHCG). Described as above. The following applies: 312 h, 250 g/ha, evaluated after 13 days, read-out: percentage phytotoxicity ECHCG. The procedure: as §1, §4
Test [10] relates to Alopecurus myosuroides (ALOMY). As to the kind of experiment: Test 1A glasshouse assay for herbicidal activity, post-emergence. The following applies: 312 h, evaluated after 13 days, read-out: percentage phytotoxicity ALOMY. The procedure: as §1, §4
The test system of test [11] is Amaranthus retroflexus (AMARE). The description is as above. The following applies: 312 h, evaluated after 13 days, read-out: percentage phytotoxicity AMARE. The procedure: as §1, §4
Test [12] relates to Setaria faberi (SETFA). The description is as above. To be noted: 312 h, evaluated after 13 days, read-out: percentage phytotoxicity SETFA. The procedure:
as §1, §4

For test [13], the system named is Abutilon theophasti Medik. (ABUTH). The description is as above. To be noted: 312 h, evaluated after 13 days, read-out: percentage phytotoxicity ABUTH. Here is the method:
as §1, §4

In test [14] the test system is Echinochloa crus-galli (ECHCG). Described as above. To be noted: 312 h, evaluated after 13 days, read-out: percentage phytotoxicity ECHCG. Here is the method: as §1, §4
In test [15] the test system is Abutilon theophasti Medik. (ABUTH). As to the kind of experiment: Biological Example 2 comparative herbicidal data, post-emergence glasshouse screen. To be noted: read-out: Post-emergence herbicidal activities (percentage phytotoxicity) ABUTH; for pest or weed control at 8 g/ha: 8 g/ha application rate; for pest or weed control at 30 g/ha: 30 g/ha application rate.

Pest or weed control data for five compounds are collected here from patent US9615577B2, “Herbicidally active cyclic dione compounds, or derivatives therefor, substituted by a phenyl which has an alkynyl-containing substituent” (Syngenta Limited, priority 2012, dated 2017).

Regarding `CC#Cc1cc(Cl)c(C2C(=O)CCCC2=O)c(OC)c1` [Compound A-22, 2-(2-Chloro-6-methoxy-4-prop-1-ynyl-phenyl)cyclohexane-1,3-dione], the pest or weed control at 8 g/ha in test [1] worked out at 0%; in test [2], 10%; in [3], 70%; in [4] it was 80%; in test [15], 0%. For the same compound, the pest or weed control at 30 g/ha in [1] was 20%; in [2] it was 60%; in test [3], 80%; in [4], 90%; in test [10] it was 60%; in test [11], 20%. Also, the pest or weed control at 30 g/ha in test [12] is 80%; in [13] it was 10%; in [14], 90%; in test [15], 10%. Moreover, the pest or weed control at 250 g/ha in test [5] came to 90%; in test [6], 70%; in test [7] it was 100%; in test [8] it was 60%; in test [9] it was 100%; in [10] it was 90%. In addition, the pest or weed control at 250 g/ha in test [11] came out at 0%; in test [12] it was 100%; in test [13], 70%; in test [14], 100%.
For `CC#Cc1cc(C)c(C2C(=O)CC(CC(C)SC)CC2=O)c(C)c1` (stereo not drawn) [Compound A-24, 2-(2,6-Dimethyl-4-prop-1-ynyl-phenyl)-5-(2-methylsulfanylpropyl)cyclohexane-1,3-dione], the pest or weed control at 30 g/ha in test [1] was found to be 0%; in test [2], 90%; in test [3] it was 100%; in [4] it was 100%; in test [10], 90%; in [11], 0%. Besides, the pest or weed control at 30 g/ha in test [12] amounted to 100%; in [13], 0%; in [14], 100%; in test [15], 0%. Moreover, the pest or weed control at 250 g/ha was determined as 90% in test [5]; 80% in test [6]; 100% in [7]; 20% in test [8]; 100% in [9]; 100% in [10]. Also, the pest or weed control at 250 g/ha is 60% in [11], 100% in test [12], 60% in test [13] and 100% in test [14].
With `C#Cc1cc(Cl)c(C2C(=O)CCCC2=O)c(OC)c1` [Compound B-2, 2-(2-Chloro-4-ethynyl-6-methoxy-phenyl)-3-hydroxy-cyclohex-2-en-1-one], the pest or weed control at 8 g/ha is 0% in test [1]; 0% in test [2]; 10% in test [3]; 0% in test [4]; 0% in [15]. In addition, the pest or weed control at 30 g/ha in test [1] came out at 0%; in test [2], 0%; in [3], 70%; in test [4] it was 80%; in test [15], 0%. For the same compound, the pest or weed control at 250 g/ha in [5] is 60%; in [6], 10%; in test [7] it was 90%; in [8], 10%; in test [9], 90%; in test [10], 70%. Besides, the pest or weed control at 250 g/ha in test [11] stood at 0%; in test [12], 90%; in test [13] it was 0%; in test [14], 100%.
Consider `C#Cc1cc(Cl)c(C2C(=O)C3CCC(C3)C2=O)c(OC)c1` (stereo not drawn) [Compound B-3, 3-(2-Chloro-4-ethynyl-6-methoxy-phenyl)bicyclo[3.2.1]octane-2,4-dione], for which the pest or weed control at 8 g/ha in test [1] was determined as 0%; in [2] it was 0%; in test [3], 20%; in test [4], 20%; in test [15], 0%. Besides, the pest or weed control at 30 g/ha in test [1] was found to be 0%; in test [2], 30%; in test [4], 70%; in test [15], 0%. The pest or weed control at 250 g/ha in test [5] was 80%; in [6], 90%; in test [7], 100%; in test [8], 100%; in [9], 90%; in [10], 80%. The pest or weed control at 250 g/ha turned out to be 0% in test [11], 90% in test [12], 0% in test [13] and 100% in test [14].
`CCC#Cc1cc(Cl)c(C2C(=O)C3CCC(C3)C2=O)c(OC)c1` (stereo not drawn) [Compound B-4]: the pest or weed control at 30 g/ha came out at 20% in [1]; 60% in [2]; 70% in test [3]; 80% in [4]; 0% in [15]. In addition, the pest or weed control at 250 g/ha in test [5] is 100%; in [6], 40%; in [7], 70%; in test [8], 10%; in test [9] it was 100%; in test [10], 100%. Moreover, the pest or weed control at 250 g/ha came out at 30% in [11], 90% in [12], 70% in test [13] and 100% in test [14].
